Laboratory results taken from patent US20170334899A1, “AMINO-SUBSTITUTED ISOTHIAZOLES” (Bayer Pharma Aktiengesellschaft, priority 2014, published 2017).

Each molecule was assayed on HeLa (assay: Proliferation assay (crystal violet), HeLa). Settings: Homo sapiens, HeLa, 96 h, HeLa cells; 4 days incubation; crystal violet staining; read-out: IC50 inhibition of proliferation, HeLa.
Type: cell-based
How it was run: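 Cells plated at 1000-5000/well with 10% FCS, treated after 24 h with compound at 0.001-10 μM (0.5% DMSO) for 4 days. Glutaraldehyde-fixed, crystal violet-stained, A595 normalised to zero-point plate (0%) and untreated cells (100%); IC50 by 4-parameter fit.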

Row | SMILES | IC50
1 | Cc1nsc(Nc2cnc(C(F)(F)F)cn2)c1C(=O)Nc1ccc(OC[C@H]2CCN(CC(F)(F)F)C2)nc1 (racemic) [Example 133, 3-Methyl-N-(6-{[(SR)-1-(2,2,2-trifluoroethyl)pyrrolidin-3-yl]methoxy}pyridin-3-yl)-5-{[5-(trifluoromethyl)pyrazin-2-yl]amino}-1,2-thiazole-4-carboxamide] | 420 nM
2 | Cc1nsc(Nc2cnc(C(F)(F)F)cn2)c1C(=O)Nc1ccc(OC2CCNCC2)nc1 [Example 6, 3-Methyl-N-[6-(piperidin-4-yloxy)pyridin-3-yl]-5-{[5-(trifluoromethyl)pyrazin-2-yl]amino}-1,2-thiazole-4-carboxamide] | 10000 nM
3 | Cc1nsc(Nc2cnc(C(F)(F)F)cn2)c1C(=O)Nc1ccc(OC2CCN(CCF)CC2)nc1 [Example 7, N-(6-{[1-(2-Fluoroethyl)piperidin-4-yl]oxy}pyridin-3-yl)-3-methyl-5-{[5-(trifluoromethyl)pyrazin-2-yl]amino}-1,2-thiazole-4-carboxamide] | 580 nM
4 | Cc1nsc(Nc2cnc(C(F)(F)F)cn2)c1C(=O)Nc1ccc(OC2CCN(CC(F)F)CC2)nc1 [Example 8, N-(6-{[1-(2,2-Difluoroethyl)piperidin-4-yl]oxy}pyridin-3-yl)-3-methyl-5-{[5-(trifluoromethyl)pyrazin-2-yl]amino}-1,2-thiazole-4-carboxamide] | 280 nM
5 | Cc1nsc(Nc2cnc(C(F)(F)F)cn2)c1C(=O)Nc1ccc(OC2CCN(CC(F)(F)F)CC2)nc1 [Example 9, -Methyl-N-(6-{[1-(2,2,2-trifluoroethyl)piperidin-4-yl]oxy}pyridin-3-yl)-5-{[5-(trifluoromethyl)pyrazin-2-yl]amino}-1,2-thiazole-4-carboxamide] | 220 nM
6 | Cc1nsc(Nc2cnc(C(F)(F)F)cn2)c1C(=O)Nc1ccc(OC2CCN(CCC(F)(F)F)CC2)nc1 [Example 10, 3-Methyl-5-{[5-(trifluoromethyl)pyrazin-2-yl]amino}-N-(6-{[1-(3,3,3-trifluoropropyl)-piperidin-4-yl]oxy}pyridin-3-yl)-1,2-thiazole-4-carboxamide] | 330 nM
7 | CC(=O)N1CCC(Oc2ccc(NC(=O)c3c(C)nsc3Nc3cnc(C(F)(F)F)cn3)cn2)CC1 [Example 11, N-{6-[(1-Acetylpiperidin-4-yl)oxy]pyridin-3-yl}-3-methyl-5-{[5-(trifluoromethyl)-pyrazin-2-yl]amino}-1,2-thiazole-4-carboxamide] | 1800 nM
8 | Cc1nsc(Nc2cncc(C(F)(F)F)n2)c1C(=O)Nc1ccc(OC2CCN(C(=O)OC(C)(C)C)CC2)nc1 [Example 12, tert-Butyl 4-[(5-{[(3-methyl-5-{[6-(trifluoromethyl)pyrazin-2-yl]amino}-1,2-thiazol-4-yl)carbonyl]amino}pyridin-2-yl)oxy]piperidine-1-carboxylate] | 910 nM
9 | Cc1nsc(Nc2cnc(C(F)(F)F)cn2)c1C(=O)Nc1ccc(C(=O)OC(C)(C)C)cc1 [Example 96, tert-Butyl 4-{[(3-methyl-5-{[5-(trifluoromethyl)pyrazin-2-yl]amino}-1,2-thiazol-4-yl)carbonyl]amino}benzoate] | 1100 nM
10 | Cc1nsc(Nc2cnc(C(F)(F)F)cn2)c1C(=O)Nc1ccc(C(=O)O)cc1 [Example 97, 4-{[(3-Methyl-5-{[5-(trifluoromethyl)pyrazin-2-yl]amino}-1,2-thiazol-4-yl)carbony]-amino}benzoic acid] | 10000 nM
11 | Cc1nsc(Nc2ccc(C#N)cn2)c1C(=O)Nc1ccc(C(=O)OC(C)(C)C)cc1 [Example 98, tert-Butyl 4-[({5-[(5-cyanopyridin-2-yl)amino]-3-methyl-1,2-thiazol-4-yl}carbonyl)-amino]benzoate] | 690 nM
12 | Cc1nsc(Nc2cnc3ccccc3n2)c1C(=O)Nc1cccc(C(=O)NCC(=O)O)c1 [Example 99, N-[3-({[3-Methyl-5-(quinoxalin-2-ylamino)-1,2-thiazol-4-yl]carbonyl}amino)benzoy]-glycine] | 10000 nM
13 | COC(=O)CNC(=O)c1cccc(NC(=O)c2c(C)nsc2Nc2cnc3ccccc3n2)c1 [Example 100, Methyl N-[3-({[3-methyl-5-(quinoxalin-2-ylamino)-1,2-thiazol-4-yl]carbonyl}amino)-benzoyl]glycinate] | 10000 nM
14 | Cc1nsc(Nc2cnc3ccccc3n2)c1C(=O)Nc1cccc(C(=O)N2CCNCC2)c1 [Example 101, 3-Methyl-N-[3-(piperazin-1-ylcarbonyl)phenyl]-5-(quinoxalin-2-ylamino)-1,2-thiazole-4-carboxamide] | 10000 nM
15 | Cc1nsc(Nc2cnc3ccccc3n2)c1C(=O)Nc1cccc(C(=O)N2CCN(C)CC2)c1 [Example 102, 3-Methyl-N-{3-[(4-methylpiperazin-1-yl)carbonyl]phenyl}-5-(quinoxalin-2-ylamino)-1,2-thiazole-4-carboxamide] | 10000 nM
16 | Cc1nsc(Nc2cnc3ccccc3n2)c1C(=O)Nc1cccc(C(=O)N[C@@H](CCC(N)=O)C(=O)O)c1 [Example 103, N^2-[3-({[3-Methyl-5-(quinoxalin-2-ylamino)-1,2-thiazol-4-yl]carbonyl}amino)-benzoyl]glutamine] | 10000 nM

Row | SMILES | IC50
17 | Cc1nsc(Nc2cnc3ccccc3n2)c1C(=O)Nc1cccc(C(=O)N[C@H](C(=O)O)[C@@H](C)OC(C)(C)C)c1 [Example 104, O-tert-Butyl-N-[3-({[3-methyl-5-(quinoxalin-2-ylamino)-1,2-thiazol-4-yl]-carbonyl}amino)benzoyl]threonine] | 6400 nM
18 | Cc1nsc(Nc2cnc3ccccc3n2)c1C(=O)Nc1cccc(C(=O)N[C@H](C(=O)O)[C@@H](C)O)c1 [Example 105, N-[3-({[3-methyl-5-(quinoxalin-2-ylamino)-1,2-thiazol-4-yl]carbonyl}amino)-benzoyl]threonine] | 10000 nM
19 | Cc1noc(-c2cccc(NC(=O)c3c(C)nsc3Nc3cnc4ccccc4n3)c2)n1 [Example 106, 3-Methyl-N-[3-(3-methyl-1,2,4-oxadiazol-5-yl)phenyl]-5-(quinoxalin-2-ylamino)-1,2-thiazole-4-carboxamide] | 1700 nM
20 | Cc1nsc(Nc2cnc3ccccc3n2)c1C(=O)Nc1cccc(-c2nnc(C(C)(C)C)o2)c1 [Example 107, N-[3-(5-tert-Butyl-1,3,4-oxadiazol-2-yl)phenyl]-3-methyl-5-(quinoxalin-2-ylamino)-1,2-thiazole-4-carboxamide] | 3000 nM
21 | Cc1nsc(Nc2cnc3ccccc3n2)c1C(=O)Nc1cccc(-c2nc(C(C)(C)C)no2)c1 [Example 108, N-[3-(3-tert-Butyl-1,2,4-oxadiazol-5-yl)phenyl]-3-methyl-5-(quinoxalin-2-ylamino)-1,2-thiazole-4-carboxamide] | 910 nM
22 | Cc1nsc(Nc2cnc(C(F)(F)F)cn2)c1C(=O)Nc1ccc(OCC2CCN(C(=O)OC(C)(C)C)C2)nc1 (centres unmarked) [Example 109, tert-Butyl 3-{[(5-{[(3-methyl-5-{[5-(trifluoromethyl)pyrazin-2-yl]amino}-1,2-thiazol-4-yl)carbonyl]amino}pyridin-2-yl)oxy]methyl}pyrrolidine-1-carboxylate] | 200 nM
23 | Cc1nsc(Nc2cncc(C(F)(F)F)n2)c1C(=O)Nc1ccc(OCC2CCN(C(=O)OC(C)(C)C)C2)nc1 (centres unmarked) [Example 110, tert-Butyl 3-{[(5-{[(3-methyl-5-{[6-(trifluoromethyl)pyrazin-2-yl]amino}-1,2-thiazol-4-yl)carbonyl]amino}pyridin-2-yl)oxy]methyl}pyrrolidine-1-carboxylate] | 850 nM
24 | CNS(=O)(=O)c1ccc(NC(=O)c2c(C)nsc2Nc2cnc3ccccc3n2)cc1 [Example 111, 3-Methyl-N-[4-(methylsulfannoyl)phenyl]-5-(quinoxalin-2-ylamino)-1,2-thiazole-4-carboxamide] | 4400 nM
25 | CC(=O)N(C)CCOc1ccc(NC(=O)c2c(C)nsc2Nc2nc3c(C(F)(F)F)cccc3s2)cn1 [Example 112, N-(6-{2-[Acetyl(methyl)amino]-ethoxy}pyridin-3-yl)-3-methyl-5-{[4-(trifluoromethyl)-1,3-benzothiazol-2-yl]amino}-1,2-thiazole-4-carboxamide] | 8800 nM
26 | Cc1nsc(Nc2cnc3ccccc3n2)c1C(=O)Nc1cccc(C(=O)N2CCCC2)c1 [Example 113, 3-Methyl-N-[3-(pyrrolidin-1-ylcarbonyl)phenyl]-5-(quinoxalin-2-ylamino)-1,2-thiazole-4-carboxamide] | 10000 nM
27 | Cc1nsc(Nc2cc(C#N)ccn2)c1C(=O)Nc1cccc(C(=O)N2CCCC2)c1 [Example 114, 5-[(4-Cyanopyridin-2-yl)amino]-3-methyl-N-[3-(pyrrolidin-1-ylcarbonyl)phenyl]-1,2-thiazole-4-carboxamide] | 10000 nM
28 | Cc1nsc(Nc2cnc3ccccc3n2)c1C(=O)Nc1ccc(S(C)(=O)=O)cc1 [Example 115, 3-Methyl-N-[4-(methylsulfonyl)phenyl]-5-(quinoxalin-2-ylamino)-1,2-thiazole-4-carboxamide] | 4400 nM
29 | CCNS(=O)(=O)c1ccc(NC(=O)c2c(C)nsc2Nc2cnc3ccccc3n2)cc1 [Example 116, N-[4-(Ethylsulfamoyl)phenyl]-3-methyl-5-(quinoxalin-2-ylamino)-1,2-thiazole-4-carboxamide] | 3000 nM
30 | Cc1nsc(Nc2cnc3ccccc3n2)c1C(=O)Nc1ccc(Oc2cccc(C(F)(F)F)c2)nc1 [Example 117, 3-Methyl-5-(quinoxalin-2-ylamino)-N-{6-[3-(trifluoromethyl)phenoxy]pyridin-3-yl}-1,2-thiazole-4-carboxamide] | 880 nM
31 | Cc1nsc(Nc2ccc(C#N)cn2)c1C(=O)Nc1ccc(Oc2cccc(C(F)(F)F)c2)nc1 [Example 118, 5-[(5-Cyanopyridin-2-yl)amino]-3-methyl-N-{6-[3-(trifluoromethyl)phenoxy]pyridin-3-yl}-1,2-thiazole-4-carboxamide] | 600 nM
32 | Cc1nsc(Nc2cc(C#N)ccn2)c1C(=O)Nc1ccc(Oc2cccnc2)nc1 [Example 119, 5-[(4-Cyanopyridin-2-yl)amino]-3-methyl-N-[6-(pyridin-3-yloxy)pyridin-3-yl]-1,2-thiazole-4-carboxamide] | 5300 nM
